One molecule from article PMC5614969, “High-Affinity Functional Fluorescent Ligands for Human β-Adrenoceptors” (Scientific Reports, 2017) can be followed below.

The target of this experiment is β1AR (Homo sapiens, UniProt P08588). In words: TR-FRET receptor-ligand saturation binding assay, Tag-lite β1AR cells. The settings on record: 2 h at room temperature, read-out: Kd app. As for the experimental part:
To confirm whether the affinity of carazolol-KK114 (24) is sufficient for the intended imaging experiments and to evaluate its β2/β1AR selectivity, we performed a TR-FRET assay in Tag-lite β1AR or β2AR transfected cells (Cisbio) labeled with Tb^3+ cryptate (Lumi4-Tb) (Fig. 3c)[39]. […] (Fig. 3d, Supplementary Fig. 5b). The high affinities of both fluorescent ligands enabled the imaging experiments.
K d determination was performed on Tag-lite β1AR (Cisbio, Cat. No. C1TT1BETA1) or β2AR (Cisbio, Cat. No. C1TT1BETA2) Tb^3+ cryptate labeled transfected cells. The β1AR or β2AR cells labeled with SNAP-Terbium interact with the specific ligand labeled with the corresponding fluorophore. […] 20 µl of a fluorescent probe or control compound in Tag-lite buffer was added to each well and incubated for 2 h at room temperature (20 °C) before readout. FRET readout was performed on a multiwell plate reader Spark 20 M (Tecan) at room temperature. […] The ratio of the acceptor and donor emission signals was calculated for each individual well using equation (3):3 Ratio=Signal655nm−BackgroundSignal/Signal620nm−BackgroundSignal
Luminescence background signal was measured in wells containing 40 µl of Tag-lite buffer only. Specific binding was calculated by subtracting nonspecific binding ratio from total binding ratio at each fluorescent ligand concentration. […]

Each structure is given as a SMILES string.

Sequence of β1AR (P08588 whole entry): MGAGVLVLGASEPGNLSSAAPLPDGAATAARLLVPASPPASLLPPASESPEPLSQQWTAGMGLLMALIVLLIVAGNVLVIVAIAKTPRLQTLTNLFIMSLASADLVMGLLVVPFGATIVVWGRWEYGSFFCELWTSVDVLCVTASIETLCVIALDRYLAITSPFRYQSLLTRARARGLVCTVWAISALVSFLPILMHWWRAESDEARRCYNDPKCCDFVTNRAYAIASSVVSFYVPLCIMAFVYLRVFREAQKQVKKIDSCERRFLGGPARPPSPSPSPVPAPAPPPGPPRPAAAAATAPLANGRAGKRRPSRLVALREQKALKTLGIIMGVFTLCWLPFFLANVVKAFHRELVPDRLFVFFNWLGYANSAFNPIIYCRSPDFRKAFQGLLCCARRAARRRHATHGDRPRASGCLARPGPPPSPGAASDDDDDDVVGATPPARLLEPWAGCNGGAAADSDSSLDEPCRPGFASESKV

`Cc1c(CCC(=O)NCCOCCOCCNC(=O)CCN(C)C(=O)c2c(F)c(F)c(F)c(F)c2C2=c3cc4c5c(c3Oc3c2cc2c6c3CCCN6C(C)(C)C=C2CS(=O)(=O)O)CCC[N+]=5C(C)(C)C=C4CS(=O)(=O)[O-])cccc1CC(C)(C)NCC(O)c1ccc(O)c2c1OCC(=O)N2` (stereo not shown) [BI-PEG-KK114 (18)]: the Kd turned out to be 63.4 ± 6.6 nM.
